Measurements: the supplement of paper PMC9663587

Experiments:
Test in all cases: GRmax, 72 h; higher = less effect;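 also: breast cell lines in 384-well plates, nine doses across a 10^4 range, Dye Drop imaging of viable cells vs DMSO and time-zero plates, GR 0 means no net growth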
HTERT_HME1 = system: HTERT_HME1
EFM19 = system: EFM19
HCC1187 = system: HCC1187
MDAMB175VII = system: MDAMB175VII
PDX1328 = system: PDX1328
CAL120 = system: CAL120
BT20 = system: BT20
HCC1937 = system: HCC1937
SUM159 = system: SUM159
MDAMB415 = system: MDAMB415
MCF10A = system: MCF10A
MDAMB361 = system: MDAMB361

Structure (SMILES)	GRmax, 72 h (HTERT_HME1) [GR]	GRmax, 72 h (EFM19) [GR]	GRmax, 72 h (HCC1187) [GR]	GRmax, 72 h (MDAMB175VII) [GR]	GRmax, 72 h (PDX1328) [GR]	GRmax, 72 h (CAL120) [GR]	GRmax, 72 h (BT20) [GR]	GRmax, 72 h (HCC1937) [GR]	GRmax, 72 h (SUM159) [GR]	GRmax, 72 h (MDAMB415) [GR]	GRmax, 72 h (MCF10A) [GR]	GRmax, 72 h (MDAMB361) [GR]
COc1ccc2c(c1)[C@]1(C[C@H]1c1ccc3c(/C=C/c4ccc(CN5C[C@@H](C)O[C@@H](C)C5)cc4)n[nH]c3c1)C(=O)N2	-0.106	0.146	-0.485	0.046	-0.0338	0.175	-0.231	-0.149	-0.119	0.157	-0.0342	0.272
COc1cccc(OCCCN)c1-c1cc(Nc2cnc(C#N)cn2)n[nH]1	-0.0816	0.929	-0.498	0.0945	0.111	0.317	-0.2	0.0059	-0.0281	0.69	0.351	-0.386
CC(=O)Nc1cccc(-n2c(=O)n(C3CC3)c(=O)c3c(Nc4ccc(I)cc4F)n(C)c(=O)c(C)c32)c1 (max 1 µM)	0.203	0.952	0.76	-0.698	0.661	0.415	0.503	0.689	0.404	0.285	0.225	0.502
CCc1cnn2c(NCc3ccc[n+]([O-])c3)cc(N3CCCC[C@H]3CCO)nc12 (max 1 µM)	-0.285	-0.532	-0.791	-0.493	-0.577	-0.132	-0.698	-0.207	-0.122	-0.488	-0.23	-0.275
CC(=O)c1c(C)c2cnc(Nc3ccc(N4CCNCC4)cn3)nc2n(C2CCCC2)c1=O (max 3.162 µM)	0.257	0.308	0.646	-0.0887	0.361	0.669	0.162	1.08	0.45	0.117	0.454	0.148
CCc1cncnc1N1CCN(Cc2nc3ccc(C(F)(F)F)cc3[nH]2)CC1 (max 10 µM)	0.455	0.921	0.575	-0.426	0.619	0.924	0.66	0.769	0.846	0.431	0.721	0.192
CCCCOc1c(C(=O)c2c(F)cc(C)cc2F)c[nH]c2nncc1-2 (max 10 µM)	-0.0276	0.188	0.437	-0.0619	0.773	0.369	-0.105	-0.0492	0.26	0.24	0.0637	0.216
CCN1CCN(Cc2ccc(Nc3ncc(F)c(-c4cc(F)c5nc(C)n(C(C)C)c5c4)n3)nc2)CC1 (max 10 µM)	0.0156	0.267	0.0999	-0.192	-0.65	-0.141	-0.216	0.302	-0.0575	-0.0085	0.151	-0.342
CNc1nc(-c2ccc3c(N)n[nH]c3c2)cc(N2C[C@@H](C(=O)NC3CCCCC3)CC[C@H]2C)n1 (max 10 µM)	0.641	0.292	0.504	-0.459	0.545	0.786	0.68	0.585	0.6	0.0477	0.918	-0.417
CO[C@@H](C)Cn1c(=O)n(C)c2cnc3ccc(-c4cncc(C(C)(C)O)c4)cc3c21 (max 10 µM)	0.0519	-0.255	-0.718	-0.938	0.0061	0.0419	-0.645	0.0369	0.0637	-0.473	0.108	-0.988
Cc1nn(C)c(COc2ccc(N3CCN(S(=O)(=O)N(C)C)CC3)cc2)c1-c1cccc2c(CCCOc3cccc4ccccc34)c(C(=O)O)n(CCN3CCOCC3)c12 (max 10 µM)	-0.422	1	0.863	0.705	0.873	0.943	0.821	0.724	0.83	0.881	0.953	0.985
CN(C)CC[C@H](CSc1ccccc1)Nc1ccc(S(=O)(=O)NC(=O)c2ccc(N3CCN(Cc4ccccc4-c4ccc(Cl)cc4)CC3)cc2)cc1[N+](=O)[O-] [ABT-737] (max 10 µM)	0.495	0.475	0.492	-0.101	-0.678	-0.434	0.593	0.269	0.781	0.352	0.817	0.844
C=CCn1c(=O)c2cnc(Nc3ccc(N4CCN(C)CC4)cc3)nc2n1-c1cccc(C(C)(C)O)n1 [AZD1775] (max 10 µM)	-0.17	-0.425	-0.729	-0.203	-0.32	-0.238	-0.677	-0.0795	-0.152	-0.186	0.0997	-0.348
CNC(=O)c1cccc(-c2ccc3c(N4CCOC[C@@H]4C)nc(N4CCOC[C@@H]4C)nc3n2)c1 [AZD2014] (max 10 µM)	0.143	-0.0465	0.227	-0.756	0.0715	0.206	0.151	0.366	0.113	-0.138	0.183	-0.756
NC1(C(=O)N[C@@H](CCO)c2ccc(Cl)cc2)CCN(c2nc[nH]c3nccc2-3)CC1 [AZD5363] (max 10 µM)	0.564	0.23	0.426	-0.28	0.766	0.806	0.229	0.504	0.444	-0.529	0.805	-0.38
